Reference: ChEMBL document CHEMBL1201861, “Genomics of Drug Sensitity in Cancer screening data, Wellcome Trust Sanger Institute”

Tests used:
BT-549 = experiment: cells; type: functional, cell-based, Homo sapiens; conditions: Homo sapiens, BT-549
Description: SANGER: Inhibition of human BT-549 cell growth in a cell viability assay.

PC-14 = experiment: cells; type: functional, cell-based, Homo sapiens; conditions: Homo sapiens, PC-14;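 note: cell viability assay measuring inhibition of PC-14 cell growth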
Description: SANGER: Inhibition of human PC-14 cell growth in a cell viability assay.

NCI-H1651 = experiment: cells; type: functional, cell-based, Homo sapiens; conditions: Homo sapiens, NCI-H1651;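 note: Read-out is a cell viability assay, with IC50 expressing inhibition of NCI-H1651 cell growth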
Description: SANGER: Inhibition of human NCI-H1651 cell growth in a cell viability assay.

HGC-27 = experiment: cells; type: functional, cell-based, Homo sapiens; conditions: Homo sapiens, HGC-27;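 note: growth inhibition of human HGC-27 cells, read out in a cell viability assay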
Description: SANGER: Inhibition of human HGC-27 cell growth in a cell viability assay.

NCI-H1048 = experiment: cells; type: functional, cell-based, Homo sapiens; conditions: Homo sapiens, NCI-H1048;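 note: growth inhibition of human NCI-H1048 cells, read out with a cell viability assay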
Description: SANGER: Inhibition of human NCI-H1048 cell growth in a cell viability assay.

ASPC1 = experiment: cells; type: functional, cell-based, Homo sapiens; conditions: Homo sapiens, ASPC1;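 note: growth inhibition of AsPC-1 cells, read out with a cell viability assay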
Description: SANGER: Inhibition of human AsPC-1 cell growth in a cell viability assay.

HLE = experiment: cells; type: functional, cell-based, Homo sapiens; conditions: Homo sapiens, HLE;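 note: growth inhibition of human HLE cells, read out by a cell viability assay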
Description: SANGER: Inhibition of human HLE cell growth in a cell viability assay.

NCI-H2029 = experiment: cells; type: functional, cell-based, Homo sapiens; conditions: Homo sapiens, NCI-H2029;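 note: Read-out is a viability assay on the cultured cells, and IC50 is the concentration that suppresses cell growth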
Description: SANGER: Inhibition of human NCI-H2029 cell growth in a cell viability assay.

NCI-H1693 = experiment: cells; type: functional, cell-based, Homo sapiens; conditions: Homo sapiens, NCI-H1693;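 note: growth inhibition of the human cell line, read out with a cell viability assay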
Description: SANGER: Inhibition of human NCI-H1693 cell growth in a cell viability assay.

RD = experiment: cells; type: functional, cell-based, Homo sapiens; conditions: Homo sapiens, RD
Description: SANGER: Inhibition of human RD cell growth in a cell viability assay.

CHP-212 = experiment: cells; type: functional, cell-based, Homo sapiens; conditions: Homo sapiens, CHP-212
Description: SANGER: Inhibition of human CHP-212 cell growth in a cell viability assay.

SK-MEL-30 = experiment: cells; type: functional, cell-based, Homo sapiens; conditions: Homo sapiens, SK-MEL-30;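 note: growth inhibition of SK-MEL-30 cells, determined with a cell viability assay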
Description: SANGER: Inhibition of human SK-MEL-30 cell growth in a cell viability assay.

J82 = experiment: cells; type: functional, cell-based, Homo sapiens; conditions: Homo sapiens, J82;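 note: growth inhibition of J82 cells, read out with a cell viability assay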
Description: SANGER: Inhibition of human J82 cell growth in a cell viability assay.

HT-29 = experiment: cells; type: functional, cell-based, Homo sapiens; conditions: Homo sapiens, HT-29;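 note: growth inhibition of human HT-29 cells, read out by a cell viability assay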
Description: SANGER: Inhibition of human HT-29 cell growth in a cell viability assay.

MeWo = experiment: cells; type: functional, cell-based, Homo sapiens; conditions: Homo sapiens, MeWo;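 note: growth inhibition of MeWo cells, determined by a cell viability readout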
Description: SANGER: Inhibition of human Mewo cell growth in a cell viability assay.

RPMI-2650 = experiment: cells; type: functional, cell-based, Homo sapiens; conditions: Homo sapiens, RPMI-2650
Description: SANGER: Inhibition of human RPMI-2650 cell growth in a cell viability assay.

NCI-H2228 = experiment: cells; type: functional, cell-based, Homo sapiens; conditions: Homo sapiens, NCI-H2228;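 note: growth inhibition of human NCI-H2228 cells, read out by a cell viability assay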
Description: SANGER: Inhibition of human NCI-H2228 cell growth in a cell viability assay.

A-431 = experiment: cells; type: functional, cell-based, Homo sapiens; conditions: Homo sapiens, A-431;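 note: growth inhibition of A-431 cells, determined with a cell viability read-out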
Description: SANGER: Inhibition of human A431 cell growth in a cell viability assay.

Ca-Ski = experiment: cells; type: functional, cell-based, Homo sapiens; conditions: Homo sapiens, Ca-Ski;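 note: cell viability assay measuring inhibition of Ca-Ski cell growth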
Description: SANGER: Inhibition of human Ca-Ski cell growth in a cell viability assay.

ACHN = experiment: cells; type: functional, cell-based, Homo sapiens; conditions: Homo sapiens, ACHN;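 note: cell viability read-out used to gauge how strongly growth of human ACHN cells is suppressed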
Description: SANGER: Inhibition of human ACHN cell growth in a cell viability assay.

HT1197 = experiment: cells; type: functional, cell-based, Homo sapiens, HT-1197; conditions: Homo sapiens, HT1197
Description: SANGER: Inhibition of human HT-1197 cell growth in a cell viability assay.

LoVo = experiment: cells; type: functional, cell-based, Homo sapiens; conditions: Homo sapiens, LoVo;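 note: growth inhibition of human LoVo cells, read out with a cell viability assay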
Description: SANGER: Inhibition of human LoVo cell growth in a cell viability assay.

KP-4 = experiment: cells; type: functional, cell-based, Homo sapiens; conditions: Homo sapiens, KP-4;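 note: human KP-4 cells, with growth inhibition read out through a cell viability assay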
Description: SANGER: Inhibition of human KP-4 cell growth in a cell viability assay.

ABC-1 = experiment: cells; type: functional, cell-based, Homo sapiens; conditions: Homo sapiens, ABC-1;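 note: growth inhibition of human ABC-1 cells, read out by a cell viability assay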
Description: SANGER: Inhibition of human ABC-1 cell growth in a cell viability assay.

BHT-101 = experiment: cells; type: functional, cell-based, Homo sapiens; conditions: Homo sapiens, BHT-101
Description: SANGER: Inhibition of human BHT-101 cell growth in a cell viability assay.

ChaGo-K-1 = experiment: cells; type: functional, cell-based, Homo sapiens; conditions: Homo sapiens, ChaGo-K-1;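 note: growth inhibition of ChaGo-K-1 cells, read out with a cell viability assay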
Description: SANGER: Inhibition of human ChaGo-K-1 cell growth in a cell viability assay.

SW48 = experiment: cells; type: functional, cell-based, Homo sapiens; conditions: Homo sapiens, SW48;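 note: growth inhibition of SW48 cells, read out with a cell viability assay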
Description: SANGER: Inhibition of human SW48 cell growth in a cell viability assay.

786-0 = experiment: cells; type: functional, cell-based, Homo sapiens; conditions: Homo sapiens
Description: SANGER: Inhibition of human 786-0 cell growth in a cell viability assay.

T47D = experiment: cells; type: functional, cell-based, Homo sapiens; conditions: Homo sapiens, T47D;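 note: growth inhibition of human T47D cells, measured with a cell viability assay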
Description: SANGER: Inhibition of human T47D cell growth in a cell viability assay.

C3A = experiment: cells; type: functional, cell-based, Homo sapiens; conditions: Homo sapiens, C3A;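 note: growth inhibition of C3A human cells, quantified with a cell viability readout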
Description: SANGER: Inhibition of human C3A cell growth in a cell viability assay.

Ca9-22 = experiment: cells; type: functional, cell-based, Homo sapiens; conditions: Homo sapiens, Ca9-22;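 note: growth inhibition of Ca9-22 cells, read out with a cell viability assay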
Description: SANGER: Inhibition of human Ca9-22 cell growth in a cell viability assay.

JEG-3 = experiment: cells; type: functional, cell-based, Homo sapiens; conditions: Homo sapiens, JEG-3;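 note: growth inhibition of human JEG-3 cells, read out with a cell viability assay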
Description: SANGER: Inhibition of human JEG-3 cell growth in a cell viability assay.

A204 = experiment: cells; type: functional, cell-based, Homo sapiens; conditions: Homo sapiens, A204;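 note: growth inhibition of human A204 cells, read out with a cell viability assay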
Description: SANGER: Inhibition of human A204 cell growth in a cell viability assay.

KYSE-70 cell line = experiment: cells; type: functional, cell-based, Homo sapiens; conditions: Homo sapiens, KYSE-70;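 note: cell viability assay read-out, with IC50 expressing suppression of KYSE-70 cell growth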
Description: SANGER: Inhibition of human KYSE-70 cell growth in a cell viability assay.

SK-OV-3 = experiment: cells; type: functional, cell-based, Homo sapiens; conditions: Homo sapiens, SK-OV-3;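 note: growth inhibition of SK-OV-3 human cells, read out with a cell viability assay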
Description: SANGER: Inhibition of human SK-OV-3 cell growth in a cell viability assay.

HCC38 = experiment: cells; type: functional, cell-based, Homo sapiens; conditions: Homo sapiens, HCC38;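 note: cell viability assay on the human HCC38 cell line, with IC50 marking the concentration that inhibits cell growth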
Description: SANGER: Inhibition of human HCC38 cell growth in a cell viability assay.

T84 = experiment: cells; type: functional, cell-based, Homo sapiens; conditions: Homo sapiens, T84;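 note: growth inhibition measured with a cell viability readout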
Description: SANGER: Inhibition of human T84 cell growth in a cell viability assay.

KYSE-520 cell line = experiment: cells; type: functional, cell-based, Homo sapiens; conditions: Homo sapiens, KYSE-520;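 note: growth inhibition of human KYSE-520 cells, read out with a viability assay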
Description: SANGER: Inhibition of human KYSE-520 cell growth in a cell viability assay.

HCC1954 = experiment: cells; type: functional, cell-based, Homo sapiens; conditions: Homo sapiens, HCC1954;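 note: growth inhibition of human HCC1954 cells, read out with a cell viability assay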
Description: SANGER: Inhibition of human HCC1954 cell growth in a cell viability assay.

SCC-3 = experiment: cells; type: functional, cell-based, Homo sapiens; conditions: Homo sapiens, SCC-3;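 note: cell viability assay measuring inhibition of SCC-3 cell growth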
Description: SANGER: Inhibition of human SCC-3 cell growth in a cell viability assay.

NCI-H2141 = experiment: cells; type: functional, cell-based, Homo sapiens; conditions: Homo sapiens, NCI-H2141;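 note: growth inhibition of human NCI-H2141 cells, read out with a cell viability assay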
Description: SANGER: Inhibition of human NCI-H2141 cell growth in a cell viability assay.

YT = experiment: cells; type: functional, cell-based, Homo sapiens; conditions: Homo sapiens, YT
Description: SANGER: Inhibition of human YT cell growth in a cell viability assay.

IM-9 = experiment: SANGER: Inhibition of human IM-9 cell growth in a cell viability assay.; type: functional, cell-based; conditions: Homo sapiens, IM-9
NCI-H1417 = experiment: cells; type: functional, cell-based, Homo sapiens; conditions: Homo sapiens, NCI-H1417;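 note: human NCI-H1417 cells, growth inhibition determined with a cell viability readout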
Description: SANGER: Inhibition of human NCI-H1417 cell growth in a cell viability assay.

TUR = experiment: cells; type: functional, cell-based, Homo sapiens; conditions: Homo sapiens, TUR;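 note: growth inhibition of human TUR cells, read out with a cell viability assay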
Description: SANGER: Inhibition of human TUR cell growth in a cell viability assay.

PF-382 = experiment: cells; type: functional, cell-based, Homo sapiens; conditions: Homo sapiens, PF-382
Description: SANGER: Inhibition of human PF-382 cell growth in a cell viability assay.

BC1 cell line = experiment: SANGER: Inhibition of human BC-1 cell growth in a cell viability assay.; type: functional, cell-based; conditions: Homo sapiens, BC1
ST486 = experiment: SANGER: Inhibition of human ST486 cell growth in a cell viability assay.; type: functional, cell-based; conditions: Homo sapiens, ST486
Daudi = experiment: cells; type: functional, cell-based, Homo sapiens; conditions: Homo sapiens, Daudi;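 note: growth inhibition of Daudi cells, read out by a viability assay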
Description: SANGER: Inhibition of human Daudi cell growth in a cell viability assay.

NCI-H719 = experiment: cells; type: functional, cell-based, Homo sapiens; conditions: Homo sapiens, NCI-H719;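 note: growth inhibition of the cultured cell line, read out with a viability assay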
Description: SANGER: Inhibition of human NCI-H719 cell growth in a cell viability assay.

CN(C)C(=N)NC(=N)N [METFORMIN]
IC50 (BT-549): 4200 µM
IC50 (PC-14): 17600 µM
IC50 (NCI-H1651): 18500 µM
IC50 (HGC-27): > 20000 µM
IC50 (NCI-H1048): > 20000 µM
IC50 (ASPC1): 5370 µM
IC50 (HLE): 9860 µM
IC50 (NCI-H2029): 14800 µM
IC50 (NCI-H1693): > 20000 µM
IC50 (RD): > 20000 µM
IC50 (CHP-212): 9630 µM
IC50 (SK-MEL-30): > 20000 µM
IC50 (J82): 12900 µM
IC50 (HT-29): > 20000 µM
IC50 (MeWo): > 20000 µM
IC50 (RPMI-2650): > 20000 µM
IC50 (NCI-H2228): > 20000 µM
IC50 (A-431): > 20000 µM
IC50 (Ca-Ski): > 20000 µM
IC50 (ACHN): > 20000 µM
IC50 (HT1197): > 20000 µM
IC50 (LoVo): > 20000 µM
IC50 (KP-4): 7050 µM
IC50 (ABC-1): > 20000 µM
IC50 (BHT-101): 6420 µM
IC50 (ChaGo-K-1): 8890 µM
IC50 (SW48): > 20000 µM
IC50 (786-0): > 20000 µM
IC50 (T47D): 19900 µM
IC50 (C3A): 11300 µM
IC50 (Ca9-22): 7950 µM

Cn1cnc2c(F)c(Nc3ccc(Br)cc3Cl)c(C(=O)NOCCO)cc21 [SELUMETINIB]
IC50 (BT-549): > 4 µM
IC50 (PC-14): > 4 µM
IC50 (NCI-H1651): > 4 µM
IC50 (HGC-27): > 4 µM
IC50 (JEG-3): > 4000 nM
IC50 (NCI-H1048): > 4 µM
IC50 (A204): 1520 nM
IC50 (ASPC1): 0.324 µM
IC50 (HLE): > 4 µM
IC50 (KYSE-70 cell line): > 4 µM
IC50 (NCI-H2029): > 4 µM
IC50 (SK-OV-3): > 4000 nM
IC50 (NCI-H1693): > 4 µM
IC50 (RD): > 4 µM
IC50 (CHP-212): < 0.0156 µM
IC50 (SK-MEL-30): 0.782 µM
IC50 (HT-29): 0.873 µM
IC50 (MeWo): 0.521 µM
IC50 (RPMI-2650): > 4 µM
IC50 (NCI-H2228): > 4 µM
IC50 (A-431): > 4 µM
IC50 (Ca-Ski): > 4 µM
IC50 (HT1197): > 4 µM
IC50 (HCC38): > 4000 nM
IC50 (T84): > 4 µM
IC50 (KYSE-520 cell line): > 4 µM
IC50 (LoVo): 1.06 µM
IC50 (ABC-1): > 4 µM
IC50 (BHT-101): 0.107 µM
IC50 (ChaGo-K-1): > 4 µM
IC50 (SW48): > 4 µM
IC50 (786-0): > 4 µM
IC50 (HCC1954): > 4000 nM
IC50 (T47D): > 4 µM
IC50 (C3A): > 4 µM
IC50 (Ca9-22): 2.38 µM

O=C(O)c1ccc(-c2c[nH]c3ncc(-c4ccccc4)cc23)cc1C1CCCC1 [GSK-650394]
IC50 (SCC-3): > 16 µM
IC50 (NCI-H2141): > 16 µM
IC50 (PC-14): > 16 µM
IC50 (NCI-H1651): > 16 µM
IC50 (HGC-27): 1.31 µM
IC50 (JEG-3): > 16000 nM
IC50 (YT): 9.9 µM
IC50 (IM-9): > 16 µM
IC50 (A204): > 16000 nM
IC50 (ASPC1): > 16 µM
IC50 (HLE): 1.43 µM
IC50 (KYSE-70 cell line): > 16 µM
IC50 (NCI-H1417): > 16 µM
IC50 (SK-OV-3): > 16000 nM
IC50 (NCI-H1693): > 16 µM
IC50 (RD): > 16 µM
IC50 (CHP-212): > 16 µM
IC50 (SK-MEL-30): 7.97 µM
IC50 (J82): 8.2 µM
IC50 (HT-29): 7.27 µM
IC50 (MeWo): > 16 µM
IC50 (RPMI-2650): > 16 µM
IC50 (NCI-H2228): 4.64 µM
IC50 (A-431): 1.86 µM
IC50 (Ca-Ski): > 16 µM
IC50 (ACHN): 10.8 µM
IC50 (TUR): 4.67 µM
IC50 (HT1197): > 16 µM
IC50 (HCC38): > 16000 nM
IC50 (T84): 2.6 µM
IC50 (PF-382): > 16 µM
IC50 (KYSE-520 cell line): > 16 µM
IC50 (LoVo): 9.91 µM
IC50 (KP-4): 5.19 µM
IC50 (BC1 cell line): 2520 nM
IC50 (ABC-1): 6.58 µM
IC50 (BHT-101): > 16 µM
IC50 (ChaGo-K-1): > 16 µM
IC50 (SW48): > 16 µM
IC50 (786-0): 2.95 µM
IC50 (ST486): > 16 µM
IC50 (Daudi): > 16 µM
IC50 (HCC1954): > 16000 nM
IC50 (T47D): > 16 µM
IC50 (C3A): > 16 µM
IC50 (Ca9-22): > 16 µM
IC50 (NCI-H719): > 16 µM

CC(C)c1ccccc1Cc1cc(C(=O)Nc2ccc(S(=O)(=O)c3ccccc3C(C)(C)C)cc2)c(O)c(O)c1O
IC50 (BT-549): 0.68 µM
IC50 (PC-14): 0.331 µM
IC50 (NCI-H1651): 1 µM
IC50 (HGC-27): 0.14 µM
IC50 (JEG-3): 736 nM
IC50 (NCI-H1048): 0.214 µM
IC50 (A204): 97.8 nM
IC50 (ASPC1): 0.973 µM
IC50 (HLE): 0.121 µM
IC50 (KYSE-70 cell line): 5.31 µM
IC50 (NCI-H2029): 14.4 µM
IC50 (SK-OV-3): 527 nM
IC50 (NCI-H1693): 1.25 µM
IC50 (RD): 0.96 µM
IC50 (CHP-212): 4.57 µM
IC50 (SK-MEL-30): 0.038 µM
IC50 (J82): 1.13 µM
IC50 (HT-29): 1.46 µM
IC50 (MeWo): 0.484 µM
IC50 (RPMI-2650): 0.238 µM
IC50 (NCI-H2228): 0.662 µM
IC50 (A-431): 1.47 µM
IC50 (ACHN): 0.149 µM
IC50 (HT1197): 5.95 µM
IC50 (HCC38): 676 nM
IC50 (T84): 13.9 µM
IC50 (KYSE-520 cell line): 4.14 µM
IC50 (LoVo): 0.161 µM
IC50 (KP-4): 0.455 µM
IC50 (ABC-1): 0.316 µM
IC50 (BHT-101): 0.0218 µM
IC50 (ChaGo-K-1): 0.296 µM
IC50 (SW48): 0.238 µM
IC50 (786-0): 6.97 µM
IC50 (HCC1954): 894 nM
IC50 (T47D): 0.691 µM
IC50 (C3A): 1.82 µM
IC50 (Ca9-22): 0.00382 µM
